Laboratory results: patent US6342502B1, “Thieno[2,3-d]pyrimidine diones and their use in the treatment of reversible obstructive airways diseases” (AstraZeneca AB, priority 1997, dated 2002)

Row | melting point | Structure (SMILES)
1 | 208 to 209 °C | CC(C)Cn1c(=O)n(C)c(=O)c2c(Sc3ccc(N)cn3)c(Cc3cccc4ccccc34)sc21 [Example 87, 5-[(5-Amino-2-pyridinyl)thio]-3-methyl-1-(2-methylpropyl)-6-(1-naphthalenylmethyl)thieno[2,3-d]pyrimidine-2,4(1H,3H)-dione]
2 | 144 to 146 °C | CC(C)Cn1c(=O)n(C)c(=O)c2c(C(=O)N(C)C)c(Cc3ccccc3)sc21 [Example 89, 1,2,3,4-Tetrahydro-3,N,N-trimethyl-1-(2-methylpropyl)-6-phenylmethy-2,4-dioxothieno[2,3-d]pyrimidine-5-carboxamide]
3 | 127 °C | CC(C)Cn1c(=O)n(C)c(=O)c2cc(C(O)c3ccc([N+](=O)[O-])cc3)sc21 (centres unmarked) [Example 90, 6-[1-Hydroxy-(4-nitrophenyl)methyl]-3-methyl-1-(2-methylpropyl)thieno[2,3-d]pyrimidin-2,4(1H,3H)-dione]
4 | 104 °C | CC(C)Cn1c(=O)n(C)c(=O)c2cc(Cc3ccc(N)cc3)sc21 [Example 92, 6-(4-Aminophenylmethyl)-3-methyl-1-(2-methylpropyl)thieno[2,3-d]pyrimidine-2,4-(1H, 3H)-dione]
5 | 230 °C | CC(=O)Nc1cccc(C(=O)Nc2ccc(Cc3cc4c(=O)n(C)c(=O)n(CC(C)C)c4s3)cc2)c1 [Example 94]
